Test results from patent US9079902B2, “Heteroaryl sodium channel inhibitors” (AMGEN INC., priority 2011, dated 2015).
Counter-ions that a name gives are not always drawn.

Legend:
Nav 1.5 = Nav 1.5 (Homo sapiens (Human), UniProt Q14524); assay: Nav 1.5 in vitro assay (IonWorks Quattro population patch-clamp); assay type: cell-based; conditions: 293 cells stably transfected with Nav 1.5; 26th pulse to -20 mV, 5 Hz
Description: (§1) Nav 1.7 and Nav 1.5 In Vitro Assay
(§2) 293 cells stably transfected with either Nav 1.7 or with Nav 1.5 were recorded in population patch-clamp mode with the IonWorks® Quattro automated electrophysiology system in accordance with the manufacturer's specifications (Molecular Devices, LLC, Sunnyvale, Calif.). Sodium channel currents were measured in response to a train of depolarizations that induced successively greater inactivation.
(§3) Cells were held at −110 mV for three seconds (Nav 1.7) or half a second (Nav 1.5) from a holding voltage of −15 mV, then put through a series of 26 pulses of 150 msec duration to −20 mV at a frequency of 5 Hz. Cells were then left unclamped for a period of 3 to 8 minutes while a single concentration of test compound was added. Cells were then reclamped and put through the same voltage protocol. Current at the end of the 26th pulse to −20 mV was subtracted from the peak current evoked by the 26th pulse to −20 mV to correct for leak current. Percent block was calculated for each concentration in duplicate, and IC50 curves were fitted to percent block as a function of concentration.

Nav 1.7 = Nav 1.7 (Homo sapiens (Human), UniProt Q15858); assay: Nav 1.7 in vitro assay (IonWorks Quattro population patch-clamp); assay type: cell-based; conditions: 293 cells stably transfected with Nav 1.7; for inhibition at 4.9 µM: HEK293; for IC50: 26th pulse to -20 mV, 5 Hz
Description: as §1, §2, §3

Chain of Nav 1.5 (Q14524 whole entry): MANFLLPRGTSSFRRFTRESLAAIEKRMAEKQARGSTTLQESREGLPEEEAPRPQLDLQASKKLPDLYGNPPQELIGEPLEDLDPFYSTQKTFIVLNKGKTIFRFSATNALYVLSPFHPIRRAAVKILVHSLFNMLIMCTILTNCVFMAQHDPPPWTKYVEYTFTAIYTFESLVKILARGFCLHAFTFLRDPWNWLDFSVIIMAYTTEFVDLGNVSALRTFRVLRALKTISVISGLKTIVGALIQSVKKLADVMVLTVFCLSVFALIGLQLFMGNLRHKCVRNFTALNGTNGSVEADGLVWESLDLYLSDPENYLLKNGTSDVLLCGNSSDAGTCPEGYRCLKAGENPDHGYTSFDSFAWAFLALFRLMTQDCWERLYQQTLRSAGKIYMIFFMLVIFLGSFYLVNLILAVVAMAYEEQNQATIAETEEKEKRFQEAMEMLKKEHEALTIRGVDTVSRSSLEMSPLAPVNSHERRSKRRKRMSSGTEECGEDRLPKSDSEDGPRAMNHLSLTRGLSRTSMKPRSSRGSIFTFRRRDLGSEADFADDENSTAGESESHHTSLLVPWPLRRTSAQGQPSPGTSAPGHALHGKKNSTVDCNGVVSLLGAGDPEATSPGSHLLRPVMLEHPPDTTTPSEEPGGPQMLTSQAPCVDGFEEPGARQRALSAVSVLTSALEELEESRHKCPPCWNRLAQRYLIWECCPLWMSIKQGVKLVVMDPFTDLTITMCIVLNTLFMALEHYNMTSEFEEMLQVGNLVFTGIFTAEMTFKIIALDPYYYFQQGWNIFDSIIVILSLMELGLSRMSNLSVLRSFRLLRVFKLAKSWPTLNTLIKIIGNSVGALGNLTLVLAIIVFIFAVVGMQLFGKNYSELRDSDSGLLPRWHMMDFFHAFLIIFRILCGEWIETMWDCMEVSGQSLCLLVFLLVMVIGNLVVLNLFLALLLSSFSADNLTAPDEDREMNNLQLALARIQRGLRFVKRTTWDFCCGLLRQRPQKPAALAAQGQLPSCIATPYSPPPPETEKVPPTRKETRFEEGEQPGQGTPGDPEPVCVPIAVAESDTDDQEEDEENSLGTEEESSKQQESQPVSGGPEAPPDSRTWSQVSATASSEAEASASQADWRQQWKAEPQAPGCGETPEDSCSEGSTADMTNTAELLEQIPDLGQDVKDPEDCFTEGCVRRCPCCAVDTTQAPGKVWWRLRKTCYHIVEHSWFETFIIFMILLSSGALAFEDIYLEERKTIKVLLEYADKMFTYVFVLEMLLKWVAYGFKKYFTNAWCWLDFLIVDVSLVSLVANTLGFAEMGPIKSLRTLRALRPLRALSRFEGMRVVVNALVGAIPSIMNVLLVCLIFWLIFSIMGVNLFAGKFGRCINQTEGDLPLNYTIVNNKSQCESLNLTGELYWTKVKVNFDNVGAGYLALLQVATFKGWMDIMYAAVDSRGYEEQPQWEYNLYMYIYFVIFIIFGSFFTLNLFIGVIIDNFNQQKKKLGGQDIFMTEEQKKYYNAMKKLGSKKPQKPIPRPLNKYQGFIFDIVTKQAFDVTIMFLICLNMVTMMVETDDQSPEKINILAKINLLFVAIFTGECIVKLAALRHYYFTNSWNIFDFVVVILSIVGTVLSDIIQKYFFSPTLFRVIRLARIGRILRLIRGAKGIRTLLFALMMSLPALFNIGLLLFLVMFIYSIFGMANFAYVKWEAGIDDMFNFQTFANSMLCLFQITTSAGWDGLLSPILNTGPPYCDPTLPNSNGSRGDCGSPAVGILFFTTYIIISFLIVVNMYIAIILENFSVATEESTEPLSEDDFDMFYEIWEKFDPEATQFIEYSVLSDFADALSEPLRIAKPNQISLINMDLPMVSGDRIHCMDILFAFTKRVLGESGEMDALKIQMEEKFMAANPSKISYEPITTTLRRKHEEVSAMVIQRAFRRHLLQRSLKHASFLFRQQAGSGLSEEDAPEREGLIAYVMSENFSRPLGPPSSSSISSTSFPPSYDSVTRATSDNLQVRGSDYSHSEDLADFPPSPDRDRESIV
Chain of Nav 1.7 (Q15858 whole entry): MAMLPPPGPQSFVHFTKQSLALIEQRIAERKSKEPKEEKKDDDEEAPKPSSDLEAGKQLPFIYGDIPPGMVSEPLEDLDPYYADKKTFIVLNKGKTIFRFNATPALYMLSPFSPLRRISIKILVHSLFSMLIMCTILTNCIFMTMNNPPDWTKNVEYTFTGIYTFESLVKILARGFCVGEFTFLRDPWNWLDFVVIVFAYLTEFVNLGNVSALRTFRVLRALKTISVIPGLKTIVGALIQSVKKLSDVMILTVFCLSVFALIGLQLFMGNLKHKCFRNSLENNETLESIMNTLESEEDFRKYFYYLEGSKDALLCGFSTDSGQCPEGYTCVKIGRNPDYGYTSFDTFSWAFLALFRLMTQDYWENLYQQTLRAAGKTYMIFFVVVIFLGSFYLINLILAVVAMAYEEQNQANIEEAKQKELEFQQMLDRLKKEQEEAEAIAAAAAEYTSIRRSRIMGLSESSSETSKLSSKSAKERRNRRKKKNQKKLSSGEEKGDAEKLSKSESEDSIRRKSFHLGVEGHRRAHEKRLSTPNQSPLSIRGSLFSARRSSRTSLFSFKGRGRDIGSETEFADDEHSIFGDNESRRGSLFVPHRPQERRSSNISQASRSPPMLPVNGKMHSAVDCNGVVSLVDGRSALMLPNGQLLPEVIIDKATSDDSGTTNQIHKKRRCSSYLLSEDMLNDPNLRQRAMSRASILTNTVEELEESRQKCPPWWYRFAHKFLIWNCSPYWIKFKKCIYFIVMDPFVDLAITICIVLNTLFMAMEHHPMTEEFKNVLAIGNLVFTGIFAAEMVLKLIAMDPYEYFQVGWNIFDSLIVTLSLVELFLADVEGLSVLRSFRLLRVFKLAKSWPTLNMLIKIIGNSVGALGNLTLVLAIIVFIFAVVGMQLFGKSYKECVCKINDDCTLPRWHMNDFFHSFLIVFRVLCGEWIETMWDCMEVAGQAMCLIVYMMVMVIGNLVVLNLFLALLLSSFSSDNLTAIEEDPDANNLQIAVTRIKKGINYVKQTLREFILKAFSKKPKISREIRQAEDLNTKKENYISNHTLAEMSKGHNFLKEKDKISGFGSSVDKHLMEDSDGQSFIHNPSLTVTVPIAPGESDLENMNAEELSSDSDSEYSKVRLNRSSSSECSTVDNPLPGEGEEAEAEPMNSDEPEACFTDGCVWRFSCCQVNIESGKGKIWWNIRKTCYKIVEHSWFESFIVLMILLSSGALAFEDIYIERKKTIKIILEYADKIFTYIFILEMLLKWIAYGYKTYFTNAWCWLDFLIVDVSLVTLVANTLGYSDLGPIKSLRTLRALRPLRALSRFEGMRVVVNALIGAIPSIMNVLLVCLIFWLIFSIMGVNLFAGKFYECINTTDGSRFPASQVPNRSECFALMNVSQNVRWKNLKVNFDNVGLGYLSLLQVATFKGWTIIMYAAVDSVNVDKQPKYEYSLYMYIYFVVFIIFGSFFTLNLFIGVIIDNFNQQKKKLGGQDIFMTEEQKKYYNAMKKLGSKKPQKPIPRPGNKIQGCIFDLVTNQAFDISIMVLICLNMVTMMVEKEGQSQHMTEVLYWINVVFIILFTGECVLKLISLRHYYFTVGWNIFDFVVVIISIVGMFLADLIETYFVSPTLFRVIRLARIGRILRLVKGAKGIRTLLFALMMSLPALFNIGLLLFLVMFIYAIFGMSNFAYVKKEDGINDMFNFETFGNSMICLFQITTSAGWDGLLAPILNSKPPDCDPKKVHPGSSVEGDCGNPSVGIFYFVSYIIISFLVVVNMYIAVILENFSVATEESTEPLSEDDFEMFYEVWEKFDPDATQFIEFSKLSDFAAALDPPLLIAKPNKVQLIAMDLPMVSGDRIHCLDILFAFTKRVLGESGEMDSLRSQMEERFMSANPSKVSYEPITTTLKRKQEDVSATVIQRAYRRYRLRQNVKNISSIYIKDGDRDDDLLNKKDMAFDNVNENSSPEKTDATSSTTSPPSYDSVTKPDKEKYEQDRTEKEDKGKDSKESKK

SMILES | IC50 (Nav 1.5) | inhibition at 4.9 µM (Nav 1.7) | IC50 (Nav 1.7)
Cn1cc(-c2ccc(C(F)(F)F)c(Cl)c2)c2ccc(S(=O)(=O)Nc3ncns3)cc21 [Example 24, 3-(3-Chloro-4-(Trifluoromethyl)Phenyl)-1-Methyl-N-(1,2,4-Thiadiazol-5-yl)-1H-Indole-6-Sulfonamide] | > 10 µM |  | 
COc1cc(-c2cn(C)c3cc(S(=O)(=O)Nc4ncns4)ccc23)c(F)cn1 [Example 56, 3-(5-Fluoro-2-Methoxypyridin-4-Yl)-1-Methyl-N-(1,2,4-Thiadiazol-5-Yl)-1H-Indole-6-Sulfonamide] | > 10 µM | 20.8% | 
Cn1cc(-c2ccc(C(F)(F)F)cc2)c2ccc(S(=O)(=O)Nc3ncns3)cc21 [Example 57, 1-Methyl-N-(1,2,4-Thiadiazol-5-Yl)-3-(4-(Trifluoromethyl)Phenyl)-1H-Indole-6-Sulfonamide] | > 10 µM | 23.3% | 
Cn1cc(-c2ccc(C(F)(F)F)cc2-c2cn[nH]c2)c2ccc(S(=O)(=O)Nc3ncns3)cc21 [Example 21, 3-(2-(1H-Pyrazol-4-yl)-4-(Trifluoromethyl)Phenyl)-1-Methyl-N-(1,2,4-Thiadiazol-5-yl)-1H-Indole-6-Sulfonamide] | > 10 µM |  | 0.0375 µM
CN(C)c1cccc(-c2cn(C)c3cc(S(=O)(=O)Nc4ncns4)ccc23)c1 [Example 47, 3-(3-(Dimethylamino)Phenyl)-1-Methyl-N-(1,2,4-Thiadiazol-5-yl)-1H-Indole-6-Sulfonamide] | > 10 µM |  | 
Cn1cc(-c2ccc(C#N)c(F)c2)c2ccc(S(=O)(=O)Nc3ncns3)cc21 [Example 31, 3-(4-Cyano-3-Fluorophenyl)-1-Methyl-N-(1,2,4-Thiadiazol-5-yl)-1H-Indole-6-Sulfonamide] | > 10 µM |  | 
Cn1cc(-c2ccc(C(F)(F)F)cc2C#N)c2ccc(S(=O)(=O)Nc3ncns3)cc21 [Example 16, 3-(2-Cyano-4-(Trifluoromethyl)Phenyl)-1-Methyl-N-(1,2,4-Thiadiazol-5-yl)-1H-Indole-6-Sulfonamide] | > 10 µM |  | 0.551 µM
Cn1cc(-c2ccc(F)c(C#N)c2)c2ccc(S(=O)(=O)Nc3ncns3)cc21 [Example 30, 3-(3-Cyano-4-Fluorophenyl)-1-Methyl-N-(1,2,4-Thiadiazol-5-yl)-1H-Indole-6-Sulfonamide] | 7.63 µM |  | 
Cn1cc(-c2ccccc2C(F)(F)F)c2ccc(S(=O)(=O)Nc3ncns3)cc21 [Example 44, 1-Methyl-N-(1,2,4-Thiadiazol-5-yl)-3-(2-(Trifluoromethyl)Phenyl)-1H-Indole-6-Sulfonamide] | > 10 µM |  | 
Cn1cc(-c2cccnc2)c2ccc(S(=O)(=O)Nc3ncns3)cc21 [Example 9, 1-Methyl-3-(Pyridin-3-yl)-N-(1,2,4-Thiadiazol-5-yl)-1H-Indole-6-Sulfonamide] | > 10 µM |  | 1.7 µM
Cn1cc(-c2cccc3c2CCNC3)c2ccc(S(=O)(=O)Nc3ncns3)cc21 [Example 53, 1-Methyl-3-(1,2,3,4-Tetrahydroisoquinolin-5-Yl)-N-(1,2,4-Thiadiazol-5-Yl)-1H-Indole-6-Sulfonamide Hydrochloride] | > 10 µM |  | 0.292 µM
Cn1cc(-c2ccc(C(F)(F)F)cc2C2=CCNCC2)c2ccc(S(=O)(=O)Nc3cscn3)cc21 [Example 66, 1-Methyl-3-(2-(1,2,3,6-Tetrahydropyridin-4-Yl)-4-(Trifluoromethyl)Phenyl)-N-(Thiazol-4-Yl)-1H-Indole-6-Sulfonamide] | > 10 µM |  | 1.41 µM
Cn1nccc1-c1cc(C(F)(F)F)ccc1-c1c[nH]c2cc(S(=O)(=O)Nc3ncns3)ccc12 [Example 5, 3-(2-(1-Methyl-1H-Pyrazol-5-yl)-4-(Trifluoromethyl)Phenyl)-N-(1,2,4-Thiadiazol-5-yl)-1H-Indole-6-Sulfonamide] | > 10 µM |  | 0.724 µM
Cn1cc(-c2ccccc2)c2ccc(S(=O)(=O)Nc3ncns3)cc21 [Example 35, 1-Methyl-3-Phenyl-N-(1,2,4-Thiadiazol-5-yl)-1H-Indole-6-Sulfonamide] | > 10 µM |  | 
Cn1nccc1-c1cn(C)c2cc(S(=O)(=O)Nc3ncns3)ccc12 [Example 52, 1-Methyl-3-(1-Methyl-1H-Pyrazol-5-Yl)-N-(1,2,4-Thiadiazol-5-Yl)-1H-Indole-6-Sulfonamide] | > 10 µM |  | 
Cn1nccc1-c1cc(Cl)ccc1-n1cnc2cc(S(=O)(=O)Nc3ncns3)ccc21 [Example 62, 1-(4-Chloro-2-(1-Methyl-1H-Pyrazol-5-Yl)Phenyl)-N-(1,2,4-Thiadiazol-5-Yl)-1H-Benzo[D]Imidazole-5-Sulfonamide] | > 10 µM |  | 2.68 µM
Cn1cc(-c2cccc3ccccc23)c2ccc(S(=O)(=O)Nc3ncns3)cc21 [Example 37, 1-Methyl-3-(Naphthalen-1-yl)-N-(1,2,4-Thiadiazol-5-yl)-1H-Indole-6-Sulfonamide] | > 10 µM |  | 

SMILES | IC50 (Nav 1.5) | inhibition at 4.9 µM (Nav 1.7) | IC50 (Nav 1.7)
Cn1cc(-c2cc(F)ccc2F)c2ccc(S(=O)(=O)Nc3ncns3)cc21 [Example 10, 3-(2,5-Difluorophenyl)-1-Methyl-N-(1,2,4-Thiadiazol-5-yl)-1H-Indole-6-Sulfonamide] | > 10 µM |  | 2.13 µM
Cn1cc(-c2ccc(OC(F)(F)F)cc2)c2ccc(S(=O)(=O)Nc3ncns3)cc21 [Example 32, 1-Methyl-N-(1,2,4-Thiadiazol-5-yl)-3-(4-(Trifluoromethoxy)Phenyl)-1H-Indole-6-Sulfonamide] | > 10 µM |  | 
Cn1cc(-c2cccc(OC(F)(F)F)c2)c2ccc(S(=O)(=O)Nc3ncns3)cc21 [Example 33, 1-Methyl-N-(1,2,4-Thiadiazol-5-yl)-3-(3-(Trifluoromethoxy)Phenyl)-1H-Indole-6-Sulfonamide] | > 10 µM |  | 
Cc1cc(C#N)ccc1-c1cn(C)c2cc(S(=O)(=O)Nc3ncns3)ccc12 [Example 46, 3-(4-Cyano-2-Methylphenyl)-1-Methyl-N-(1,2,4-Thiadiazol-5-yl)-1H-Indole-6-Sulfonamide] | > 10 µM |  | 
COc1cc(OC)cc(-c2cn(C)c3cc(S(=O)(=O)Nc4ncns4)ccc23)c1 [Example 29, 3-(3,5-Dimethoxyphenyl)-1-Methyl-N-(1,2,4-Thiadiazol-5-yl)-1H-Indole-6-Sulfonamide] | > 10 µM |  | 
COc1ccc(-c2cn(C)c3cc(S(=O)(=O)Nc4ncns4)ccc23)c2ccccc12 [Example 40, 3-(4-Methoxynaphthalen-1-yl)-1-Methyl-N-(1,2,4-Thiadiazol-5-yl)-1H-Indole-6-Sulfonamide] | > 10 µM |  | 
COc1ccc(-c2cn(C)c3cc(S(=O)(=O)Nc4ncns4)ccc23)c(OC)c1 [Example 36, 3-(2,4-Dimethoxyphenyl)-1-Methyl-N-(1,2,4-Thiadiazol-5-yl)-1H-Indole-6-Sulfonamide] | > 10 µM |  | 
Cn1cc(-c2cccc(C(F)(F)F)c2)c2ccc(S(=O)(=O)Nc3ncns3)cc21 [Example 48, 1-Methyl-N-(1,2,4-Thiadiazol-5-yl)-3-(3-(Trifluoromethyl)Phenyl)-1H-Indole-6-Sulfonamide] | > 10 µM |  | 
Cc1noc(C)c1-c1cn(C)c2cc(S(=O)(=O)Nc3ncns3)ccc12 [Example 42, 3-(3,5-Dimethylisoxazol-4-yl)-1-Methyl-N-(1,2,4-Thiadiazol-5-yl)-1H-Indole-6-Sulfonamide] | > 10 µM |  | 
Cn1cc(-c2cccc(C#N)c2)c2ccc(S(=O)(=O)Nc3ncns3)cc21 [Example 34, 3-(3-Cyanophenyl)-1-Methyl-N-(1,2,4-Thiadiazol-5-yl)-1H-Indole-6-Sulfonamide] | > 10 µM |  | 
COc1cc(F)ccc1-c1cn(C)c2cc(S(=O)(=O)Nc3ncns3)ccc12 [Example 28, 3-(4-FLUORO-2-METHOXYPHENYL)-1-METHYL-N-(1,2,4-Thiadiazol-5-yl)-1H-Indole-6-Sulfonamide] | > 10 µM |  | 
Cn1cc(-c2ccc(Br)cc2C(F)(F)F)c2ccc(S(=O)(=O)Nc3ncns3)cc21 [Example 43, 3-(4-Bromo-2-(Trifluoromethyl)Phenyl)-1-Methyl-N-(1,2,4-Thiadiazol-5-yl)-1H-Indole-6-Sulfonamide] | > 10 µM |  | 
Cc1cnc(N)c(-c2cn(C)c3cc(S(=O)(=O)Nc4ncns4)ccc23)c1 [Example 45, 3-(2-Amino-5-Methylpyridin-3-yl)-1-Methyl-N-(1,2,4-Thiadiazol-5-yl)-1H-Indole-6-Sulfonamide] | > 10 µM |  | 
COc1ccc(-c2cn(C)c3cc(S(=O)(=O)Nc4ncns4)ccc23)c(Cl)c1 [Example 41, 3-(2-Chloro-4-Methoxyphenyl)-1-Methyl-N-(1,2,4-Thiadiazol-5-yl)-1H-Indole-6-Sulfonamide] | > 10 µM |  | 
Cn1cc(-c2cccc(S(C)(=O)=O)c2)c2ccc(S(=O)(=O)Nc3ncns3)cc21 [Example 39, 1-Methyl-3-(3-(Methylsulfonyl)Phenyl)-N-(1,2,4-Thiadiazol-5-yl)-1H-Indole-6-Sulfonamide] | > 10 µM |  | 
Cn1cc(-c2cccc3ncccc23)c2ccc(S(=O)(=O)Nc3ncns3)cc21 [Example 38, 1-Methyl-3-(Quinolin-5-yl)-N-(1,2,4-Thiadiazol-5-yl)-1H-Indole-6-Sulfonamide] | > 10 µM |  | 
COc1ccc(-c2cn(C)c3cc(S(=O)(=O)Nc4ncns4)ccc23)cc1C(F)(F)F [Example 49, 3-(4-Methoxy-3-(Trifluoromethyl)Phenyl)-1-Methyl-N-(1,2,4-Thiadiazol-5-Yl)-1H-Indole-6-Sulfonamide] | > 10 µM |  | 
